According to patent EP0262903A2, “New acyl derivatives of 20-modified tylosin and desmycosin compounds” (priority 1986, dated 1988):
≈ marks a conversion by molar mass, not a printed value. Where two headings read alike, the source gives them in different places.

Experiments:
[1] = system: Streptococcus pyogenes C203; test: ED50 in mice experimentally infected with S. pyogenes C203; type: in vivo
Protocol: The formula 1 compounds have shown in vivo antimicrobial activity against experimentally-induced infections in laboratory animals. When two doses of test compound were administered to mice experimentally infected with S. pyogenes C203, the activity observed was measured as an ED₅₀ value [effective dose in mg/kg to protect 50% of the test animals: see Warren Wick, et 5 al., J. Bacteriol. 81, 233-235 (1961)].

[2] = system: Staphylococcus epidermidis 222; test: MIC, standard agar-dilution assay; type: cell-based
Protocol: (§1) The MIC's in Table II were determined by standard agar-dilution assays. The MIC's in Table III were obtained using conventional broth-dilution microtiter tests.

[3] = system: Klebsiella pneumoniae X68; test: MIC, standard agar-dilution assay; type: cell-based
Protocol: as §1

[4] = system: Streptococcus faecalis 2041; test: MIC, standard agar-dilution assay; type: cell-based; settings: Enterococcus faecalis
Protocol: as §1

[5] = system: Streptococcus pyogenes C203; test: MIC, standard agar-dilution assay; type: cell-based
Protocol: as §1

[6] = system: Staphylococcus aureus X1.1; test: MIC, standard agar-dilution assay; type: cell-based
Protocol: as §1

[7] = system: Staphylococcus aureus X400; test: MIC, standard agar-dilution assay; type: cell-based
Protocol: as §1

[8] = system: Haemophilus influenzae C.L.; test: MIC, standard agar-dilution assay; type: cell-based
Protocol: as §1

[9] = system: Haemophilus influenzae 76; test: MIC, standard agar-dilution assay; type: cell-based
Protocol: as §1

[10] = system: Escherichia coli EC14; test: MIC, standard agar-dilution assay; type: cell-based
Protocol: as §1

[11] = system: Staphylococcus aureus V41; test: MIC, standard agar-dilution assay; type: cell-based
Protocol: as §1

[12] = system: Staphylococcus epidermidis EPI1; test: MIC, standard agar-dilution assay; type: cell-based
Protocol: as §1

[13] = system: Streptococcus faecalis X66; test: MIC, standard agar-dilution assay; type: cell-based; settings: Enterococcus faecalis
Protocol: as §1

[14] = system: Pseudomonas aeruginosa X239; test: MIC, standard agar-dilution assay; type: cell-based
Protocol: as §1

[15] = system: Streptococcus pneumoniae Park I; test: MIC, standard agar-dilution assay; type: cell-based
Protocol: as §1

[16] = system: Staphylococcus aureus S13E; test: MIC, standard agar-dilution assay; type: cell-based
Protocol: as §1

[17] = system: Mycoplasma gallisepticum 15E; test: MIC, conventional broth-dilution microtiter test; type: cell-based; settings: Mycoplasmoides gallisepticum
Protocol: as §1

[18] = system: Mycoplasma gallisepticum 29C; test: MIC, conventional broth-dilution microtiter test; type: cell-based; settings: Mycoplasmoides gallisepticum
Protocol: as §1

[19] = system: Mycoplasma gallisepticum 36H; test: MIC, conventional broth-dilution microtiter test; type: cell-based; settings: Mycoplasmoides gallisepticum
Protocol: as §1

[20] = system: Pasteurella multocida 60A; test: MIC, conventional broth-dilution microtiter test; type: cell-based; settings: Avian isolate
Protocol: as §1

[21] = system: Pasteurella multocida 40G; test: MIC, conventional broth-dilution microtiter test; type: cell-based
Protocol: as §1

[22] = system: Pasteurella multocida 68C; test: MIC, conventional broth-dilution microtiter test; type: cell-based
Protocol: as §1

[23] = system: Pasteurella hemolytica 23C; test: MIC, conventional broth-dilution microtiter test; type: cell-based
Protocol: as §1

[24] = system: Pasteurella hemolytica 41D; test: MIC, conventional broth-dilution microtiter test; type: cell-based
Protocol: as §1

[25] = system: Pasteurella hemolytica 22C; test: MIC, conventional broth-dilution microtiter test; type: cell-based
Protocol: as §1

[26] = system: Bordetella bronchiseptica; test: MIC, conventional broth-dilution microtiter test; type: cell-based
Protocol: as §1

[27] = system: Pasteurella multocida 22A; test: MIC, conventional broth-dilution microtiter test; type: cell-based
Protocol: as §1

[28] = system: Staphylococcus aureus; test: MIC, conventional broth-dilution microtiter test; type: cell-based
Protocol: as §1

[29] = system: Pasteurella multocida 17E; test: MIC, conventional broth-dilution microtiter test; type: cell-based; settings: Bovine isolate
Protocol: as §1

[30] = system: Mycoplasma hyopneumoniae S5972; test: MIC, conventional broth-dilution microtiter test; type: cell-based; settings: Mesomycoplasma hyopneumoniae
Protocol: as §1

[31] = system: Streptococcus sp. 19F; test: MIC, conventional broth-dilution microtiter test; type: cell-based
Protocol: as §1

[32] = C203, mice, oral, two doses given 1 and 4 hours post-infection, dose protecting 50% of the test animals, read-out: ED50 Oral
[33] = C203, sc, mice, subcutaneous, two doses given 1 and 4 hours post-infection, dose protecting 50% of the test animals, read-out: ED50 Subcutaneous
[34] = Staphylococcus epidermidis 222, agar dilution, read-out: MIC
[35] = Streptococcus faecalis 2041, agar dilution, read-out: MIC
[36] = Streptococcus pyogenes C203, agar dilution, read-out: MIC
[37] = Staphylococcus aureus X1.1, agar dilution, read-out: MIC
[38] = Staphylococcus aureus X400, Methicillin-resistant strain, agar dilution, read-out: MIC
[39] = Haemophilus influenzae C.L., Ampicillin-sensitive strain, agar dilution, read-out: MIC
[40] = Haemophilus influenzae 76, Ampicillin-resistant strain, agar dilution, read-out: MIC
[41] = Escherichia coli EC14, agar dilution, read-out: MIC
[42] = Staphylococcus aureus V41, Penicillin-resistant strain, agar dilution, read-out: MIC
[43] = Staphylococcus epidermidis EPI1, agar dilution, read-out: MIC
[44] = Streptococcus faecalis X66, agar dilution, read-out: MIC
[45] = Pseudomonas aeruginosa X239, agar dilution, read-out: MIC
[46] = Streptococcus pneumoniae Park I, agar dilution, read-out: MIC

Compound | MIC ([3]; Klebsiella pneumoniae, X68) [µg/mL] | MIC [16] [µg/mL] | ED50 [1, 32] [mg/kg] | ED50 [1, 33] [mg/kg] | MIC [2, 34] [µg/mL] | MIC [4, 35] [µg/mL] | MIC [5, 36] [µg/mL] | MIC [6, 37] [µg/mL] | MIC [7, 38] [µg/mL] | MIC [8, 39] [µg/mL] | MIC [9, 40] [µg/mL] | MIC [10, 41] [µg/mL] | MIC [11, 42] [µg/mL] | MIC [12, 43] [µg/mL] | MIC [13, 44] [µg/mL] | MIC [14, 45] [µg/mL] | MIC [15, 46] [µg/mL] | further results
CCC1OC(=O)CC(O)C(C)C(OC2OC(C)C(O)C(N(C)C)C2O)C(CCOc2ccccc2)CC(C)C(=O)C=CC(C)=CC1COC1OC(C)C(OC(=O)Cc2ccccc2)C(OC)C1OC (stereo not shown) [Compound 4, 20-DH-20-O-Phenyl-4ʹʹ-O-(phenylacetyl)-desmycosin] | > 128 | 2 (≈ 2.07 µM) |  |  |  |  |  |  |  |  |  |  |  |  |  |  |  | ED50 ([1]; C203, po, read-out: ED50 Oral): 14.2 mg/kg; ED50 ([1]; C203, sc, read-out: ED50 Subcutaneous): > 10 mg/kg; MIC ([2]; Staphylococcus epidermidis, 222): 1 µg/mL (≈ 1.03 µM); MIC [4]; 2041: 64 µg/mL (≈ 66.1 µM); MIC ([5]; Streptococcus pyogenes, C203): 2 µg/mL (≈ 2.07 µM); MIC ([6]; Staphylococcus aureus, X1.1): 2 µg/mL (≈ 2.07 µM); MIC ([7]; Staphylococcus aureus, X400): 2 µg/mL (≈ 2.07 µM); MIC ([8]; Haemophilus influenzae): 128 µg/mL (≈ 132 µM); MIC ([9]; Haemophilus influenzae, 76): 128 µg/mL (≈ 132 µM); MIC ([10]; Escherichia coli, EC14): > 128 µg/mL; MIC ([11]; Staphylococcus aureus, V41): 2 µg/mL (≈ 2.07 µM); MIC ([12]; Staphylococcus epidermidis, EPI1): 2 µg/mL (≈ 2.07 µM); MIC ([13]; X66): 16 µg/mL (≈ 16.5 µM); MIC ([14]; Pseudomonas aeruginosa, X239): > 128 µg/mL; MIC ([15]; Streptococcus pneumoniae): 4 µg/mL (≈ 4.13 µM)
CCC1OC(=O)CC(O)C(C)C(OC2OC(C)C(O)C(N(C)C)C2O)C(CCOc2ccccc2)CC(C)C(=O)C=CC(C)=CC1COC1OC(C)C(OC(=O)CN2CCCC2)C(OC)C1OC (stereo not shown) [Compound 13, 20-DH-20-O-Phenyl-4ʹʹ-O-(pyrrolidin-1-ylacetyl)-desmycosin] | > 128 | 1 (≈ 1.04 µM) | 24 | 10 | 0.5 (≈ 0.52 µM) | 16 (≈ 16.6 µM) | 1 (≈ 1.04 µM) | 0.5 (≈ 0.52 µM) | 1 (≈ 1.04 µM) | 32 (≈ 33.3 µM) | 32 (≈ 33.3 µM) | > 128 | 1 (≈ 1.04 µM) | 1 (≈ 1.04 µM) | 16 (≈ 16.6 µM) | > 128 | 2 (≈ 2.08 µM) | MIC [17]: 50 µg/mL (≈ 52 µM); MIC [18]: 1.56 µg/mL (≈ 1.62 µM); MIC [19]: 50 µg/mL (≈ 52 µM); MIC [20]: 50 µg/mL (≈ 52 µM); MIC [21]: 25 µg/mL (≈ 26 µM); MIC [22]: 25 µg/mL (≈ 26 µM); MIC [23]: 50 µg/mL (≈ 52 µM); MIC [24]: > 50 µg/mL; MIC [25]: > 50 µg/mL; MIC [26]: > 50 µg/mL; MIC [27]: 50 µg/mL (≈ 52 µM); MIC [28]: 3.12 µg/mL (≈ 3.25 µM); MIC [29]: 50 µg/mL (≈ 52 µM); MIC [30]: > 50 µg/mL; MIC [31]: 6.25 µg/mL (≈ 6.5 µM)
CCC1OC(=O)CC(O)C(C)C(OC2OC(C)C(O)C(N(C)C)C2O)C(CCOc2ccccc2)CC(C)C(=O)C=CC(C)=CC1COC1OC(C)C(OC(=O)C(NC(=O)OC(C)(C)C)c2ccccc2)C(OC)C1OC [Compound 6, 4ʹʹ-O-(N-BOC)-D-phenylglycyl-20-DH-20-O-phenyl-desmycosin] | > 128 | 16 (≈ 14.8 µM) |  |  | 8 (≈ 7.38 µM) | > 128 | 8 (≈ 7.38 µM) | 8 (≈ 7.38 µM) | 8 (≈ 7.38 µM) | > 128 | > 128 | > 128 | 8 (≈ 7.38 µM) | 16 (≈ 14.8 µM) | > 128 | > 128 | 16 (≈ 14.8 µM) | 
CCC1OC(=O)CC(O)C(C)C(OC2OC(C)C(O)C(N(C)C)C2O)C(CCOc2ccccc2)CC(C)C(=O)C=CC(C)=CC1COC1OC(C)C(OC(=O)CNCc2ccccc2)C(OC)C1OC (stereo not shown) [Compound 11, 4ʹʹ-O-(N-Benzylaminoacetyl)-20-DH-20-O-phenyl-desmycosin] | > 128 | 2 (≈ 2.01 µM) | 14.4 | 5.7 | 2 (≈ 2.01 µM) | 8 (≈ 8.02 µM) | 2 (≈ 2.01 µM) | 1 (≈ 1 µM) | 2 (≈ 2.01 µM) | 128 (≈ 128 µM) | 64 (≈ 64.2 µM) | > 128 | 2 (≈ 2.01 µM) | 2 (≈ 2.01 µM) | 8 (≈ 8.02 µM) | > 128 | 2 (≈ 2.01 µM) | 
CCC1OC(=O)CC(O)C(C)C(OC2OC(C)C(O)C(N(C)C)C2O)C(CCOc2ccccc2)CC(C)C(=O)C=CC(C)=CC1COC1OC(C)C(OC(=O)CN2CCN(C)CC2)C(OC)C1OC (stereo not shown) [Compound 15, 4ʹʹ-O-[(4-Methyl-piperazin-1-yl)acetyl]-20-DH-20-O-phenyl-desmycosin] |  | 4 (≈ 4.04 µM) | 29 | > 10 | 4 (≈ 4.04 µM) | 16 (≈ 16.2 µM) | 2 (≈ 2.02 µM) | 4 (≈ 4.04 µM) | 4 (≈ 4.04 µM) | 128 (≈ 129 µM) | 128 (≈ 129 µM) | > 128 | 4 (≈ 4.04 µM) | 8 (≈ 8.08 µM) | 16 (≈ 16.2 µM) | > 128 | 1 (≈ 1.01 µM) | MIC ([3]; Klebsiella pneumoniae X68, agar dilution, read-out: MIC): > 128 µg/mL
CCC1OC(=O)CC(O)C(C)C(OC2OC(C)C(O)C(N(C)C)C2O)C(CCOc2ccccc2)CC(C)C(=O)C=CC(C)=CC1COC1OC(C)C(OC(=O)C(N)c2ccccc2)C(OC)C1OC [Compound 7, 20-DH-20-O-Phenyl-4ʹʹ-O-(D-phenylglycyl)-desmycosin] | > 128 | 1 (≈ 1.02 µM) | 21 | > 10 | 1 (≈ 1.02 µM) | 32 (≈ 32.5 µM) | 2 (≈ 2.03 µM) | 1 (≈ 1.02 µM) | 1 (≈ 1.02 µM) | 128 (≈ 130 µM) | 64 (≈ 65.1 µM) | > 128 | 2 (≈ 2.03 µM) | 2 (≈ 2.03 µM) | 16 (≈ 16.3 µM) | > 128 | 2 (≈ 2.03 µM) | 
